Drawing on PubChem BioAssay AID2305 (GlaxoSmithKline (GSK), 2010), this text covers IC50 for 92 compounds.

The subject of this experiment is P. falciparum 3D7 growth, pLDH absorbance. The experiment can be described thus: P. falciparum 3D7 growth inhibition, dose response, strain 3D7 (AID 2305).

As usually defined, the IC50 is the midpoint of a concentration-inhibition curve. A lower IC50 goes with higher potency.

“And” between values parts separate entries of the source, which are not always exact repeats. Equal entries are not always repeated.

As to `CCOc1cc(CC)ccc1C1CCN(CCCCNC(=O)c2ccc(NC(=O)c3ccc(C#N)cc3)cc2)CC1`, the IC50 worked out at 500 nM.

The compound `c1ccc2c(CNc3nc(NCC4CCCCC4)nc4nc[nH]c34)cccc2c1` yielded a half-inhibitory concentration (IC50) of 890 nM. With `CCOc1ccc(NC(C)=O)c(O)c1` the figure was 840 nM; with `CN1Cc2ccc(NS(=O)(=O)c3ccc(-c4ccoc4)cc3)cc2C1`, 160 nM; with `COC(=O)COc1cc(C(=O)NCCCCN2CCC(c3ccc4c(c3OC)CCCC4)CC2)ccc1-c1ccc(Cl)cc1`, 260 nM. With `COc1ccc2ncc(F)c([C@H](O)CN3CCC(NCc4ccc5c(c4)NC(=O)CS5)CC3)c2c1` the figure was 190 nM; with `O=[N+]([O-])c1ccccc1C=NNc1ccnc2ccccc12`, 860 nM.

`COc1ccc(CN2CCC(CNCCc3ccccc3Cl)CC2)cc1` came in with a half-inhibitory concentration (IC50) of 1110 nM. With `O=C(NC1CCN(CC2(c3ccccc3F)CCCC2)CC1)c1ccn[nH]1` the figure was 1000 nM; with `O=C(Nc1cccc(-c2nn3ncccc3c2-c2ccnc(Nc3cccc(-c4cnco4)c3)n2)c1)c1c(F)cccc1F`, 170 nM; with `CCC(C)c1ccc(NC(=O)c2ccc(S(=O)(=O)Nc3ccc(OC)c(N4CCN(CC5CC5)CC4)c3)cc2)cc1` (configuration not stated), 700 nM. With `Cc1cc(N)ncc1-c1ccc(NC(=O)Nc2cc(C(F)(F)F)ccc2F)cc1` the figure was 700 nM. On to `Fc1ccc2nc(-c3ccc(-c4ccc(CN5CCC(CCN6CCCCC6)CC5)cc4)s3)[nH]c2c1`, for which the IC50 is 140 nM. This IC50 lies about 5-fold lower than the previous one. With `Cc1[nH]c(C)c(Cc2ccc(Oc3ccc(OC(F)(F)F)cc3)cc2)c(=O)c1Br` the figure was 690 nM; with `CCOc1cc(C(=O)NCCCN2CCCCC2C)ccc1-c1nc2ccc(Cl)cc2[nH]1` (configuration not stated), 1070 nM; with `NC(N)=Nc1nc(-c2cccc(NCCCCCCCCON3C(N)=NC(N)=NC34CCCCC4)c2)cs1`, 230 nM. With `Cc1cc(N[C@@H](Cc2ccccc2)C(=O)NC2CCCC2)nc(NCCc2cccs2)n1` the figure was 1400 nM; with `Nc1nc(N)c2c(ccc3c2cnn3S(=O)(=O)N2CCCC2)n1`, 20 nM; with `COc1cccc(COCC(O)CN(CCc2ccccn2)C(=O)c2ccccc2F)c1` (configuration not stated), 820 nM. With `CCCNCc1ccc(-c2ccc(CN(CCOC)C(=O)[C@H]3CCCO3)cc2)nc1` the figure was 750 nM; with `CCN(CC)S(=O)(=O)c1ccc(C=CC(=O)Nc2cc(Cl)ccc2N2CCOCC2)cc1`, 920 nM. Regarding `O=C(Nc1cccc(-c2cccc(-c3ccc(F)cc3)n2)c1)c1ccc([N+](=O)[O-])o1`, the IC50 was 360 nM.

As for `Cc1nc2nc(N)nc(N)c2c(C)c1Cc1cccs1`, the half-maximal inhibitory concentration (IC50) came to 780 nM. With `CCN(CC)CCCC(C)Nc1ccnc2[nH]c3ccccc3c12` (configuration not stated) the figure was 1770 nM. Consider `O=c1nc(C=Cc2ccc(Br)cc2)oc2ccccc12`, for which the concentration for half-maximal inhibition (IC50) amounted to 1050 nM. Turning to `O=C(Nc1ccccc1Cl)NC1CCC(CN2CCC(c3c[nH]c4ccccc34)CC2)CC1` (configuration not stated), the IC50 was 800 nM and 750 nM. With `O=C(Nc1cccc(-c2nn3ccccc3c2-c2ccnc(Nc3cccc(F)c3)n2)c1)c1c(F)ccc(F)c1F` the figure was 860 nM. With `COc1ccc2nccc(NN=Cc3ccc([N+](=O)[O-])cc3)c2c1` the figure was 710 nM; with `Cc1cc(N[C@@H](CC(C)C)C(=O)Nc2ccccc2)nc(NCCc2ccccc2)n1`, 890 nM.

`O=C(NC1CCC(CCN2Cc3ccc(Br)cc3C2)CC1)c1cccc(-c2cccnc2)c1` (configuration not stated): the concentration for half-maximal inhibition (IC50) is 930 nM. With `O=C(Nc1ccc(N2CCCN(Cc3cccc(F)c3)CC2)cc1)c1cccs1` the figure was 550 nM.

`Cc1cc(NC(c2ccc(Cl)cc2)c2ccc3cccnc3c2O)no1` (configuration not stated): the IC50 worked out at 1090 nM. In turn, `O=C(Nc1cc(Cl)cc(Cl)c1)Nc1ccnc2ccccc12` registered an IC50 of 750 nM. With `O=C(/C=C/c1cc(F)cc(C(F)(F)F)c1)N1CCC(CN2CCC(c3c[nH]c4ccccc34)CC2)CC1` the figure was 760 nM; with `CCCN1CCN(CCCCNc2c3ccccc3nc3ccccc23)CC1`, 410 nM. Compound `COC(=O)/C=C/c1ccc(CC(C)NCC(O)c2cccc(Br)c2)cc1` (configuration not stated) displayed an IC50 of 720 nM. Against the preceding compound, the IC50 is about 1.8-fold higher. With `Cc1nc2ccc3ccc(CN(C)c4ccc(C(=O)N[C@@H](CCC(=O)O)C(=O)O)cc4)cc3c2c(=O)[nH]1` the figure was 880 nM; with `Oc1ccccc1CN[C@@H]1CCCC[C@H]1NCc1ccccc1O`, 950 nM. With `COC(=O)c1ccc(CC(C)NCC(O)c2cccc(I)c2)cc1` (configuration not stated) the figure was 1320 nM; with `Cc1nccn1CCNC(=O)CN1CCC2(CCC1=O)CC(=O)c1ccccc1O2` (configuration not stated), 800 nM; with `O=C(Nc1ccc(C(=O)Oc2ccc(-c3ccccc3)cc2)cc1)N[C@@H](Cc1ccc(O)cc1)C(=O)NC1CCN(Cc2ccc(O)cc2)C1` (some centres not stated), 800 nM. With `Cn1nc(-c2ccc(NC(=O)Nc3cc(C(F)(F)F)cc(C(F)(F)F)c3)c(F)c2)c2cnc(NCCN3CCOCC3)nc21` the figure was 800 nM; with `NCC1CCCN1Cc1cccc(-c2ccc(-c3nc4ccc(C(F)(F)F)cc4[nH]3)cc2)c1` (configuration not stated), 780 nM. In turn, `CCC1CCCCN1S(=O)(=O)c1ccc(NC(=O)c2cc(C)on2)cc1` (configuration not stated) came in with an IC50 of 1240 nM. Compared with the last compound, the IC50 is about 1.6-fold higher. `Clc1ccc(-c2cc(-c3csc(NCCN4CCCCC4)n3)on2)cc1`: the IC50 was 990 nM. `Cc1ccc(NC(=O)c2c(C)noc2-c2snnc2C)cc1`: the IC50 is 1370 nM. With `CC(=O)Nc1cccc(C(=O)Nc2cccc(-c3ccc(-c4nc5ccc(F)cc5[nH]4)cc3)c2)c1` the figure was 760 nM; with `CC(=O)N1N=C(c2cccs2)Sc2c1nc(-c1ccc(Cl)cc1)n2C(C)=O`, 740 nM. With `Cn1c(-c2ccccc2)cc2c3c(=O)cc(C(F)(F)F)[nH]c3ccc21` the figure was 850 nM; with `O=C(Nc1ccc(-c2csc(-c3nc4ccccc4[nH]3)c2)cc1)Nc1ccc(F)c(F)c1F`, 330 nM. In the case of `C=CCn1c(SCC(=O)Nc2cc(Cl)ccc2Cl)nc2sc(C)cc2c1=O`, the IC50 amounted to 70 nM. With `Cc1ccc(-c2cc(C(=O)Nc3ccc(S(=O)(=O)N4CCCCC4C)cc3)[nH]n2)c(O)c1` (configuration not stated) the figure was 1080 nM; with `CC(C)(C)c1ccc(-c2nnc(N)nc2N)cc1`, 860 nM.

With `COc1ccccc1CNC(=O)c1cc(C2CC2)nc2c1cnn2C(C)C`, the half-maximal inhibitory concentration (IC50) amounted to 1020 nM.

Take `Cc1cccc2[nH]c(-c3cccc(-c4ccc(NC(=O)Cc5cnc[nH]5)cc4)c3)nc12`: the IC50 came to 690 nM. This IC50 and that of the compound before are within 1.5-fold of each other.

`Nc1ccc(-c2ccc3ccnc(N)c3c2)cn1` displayed a half-maximal inhibitory concentration (IC50) of 350 nM. With `CCC(=O)Nc1ccc(C(O)CN2CCC3(C=Cc4ccccc4O3)CC2)cc1` (configuration not stated) the figure was 1200 nM; with `Cc1cc(NN=Cc2ccccc2[N+](=O)[O-])c2ccccc2n1`, 780 nM; with `COc1cccc(NC(=O)[C@H](C(C)C)n2c(=O)[nH]c3ccccc3c2=O)c1`, 270 nM. Take `O=C(c1ccc(-c2ccc(-c3nc4ccc(F)cc4[nH]3)cc2)cc1)N1CCCCC1CN1CCC(O)C1` (configuration not stated): the concentration for half-maximal inhibition (IC50) is 370 nM. With `Cc1sc2ncnc(Sc3nc4ccccc4[nH]3)c2c1C` the figure was 260 nM; with `Cc1cc(N2CCCC2)nc(Nc2ccc(NC(=O)c3ccccc3F)cc2)n1`, 920 nM. With `O=C(c1ccccc1N=Nc1c(-c2ccccc2)[nH]n(-c2ccccc2)c1=O)N1CCOCC1` the figure was 350 nM; with `COc1cccc(CN2CCC3(CC2)CN(C(=O)Nc2ccc(Cl)c(Cl)c2)C3)c1`, 750 nM. For the compound `COc1ccccc1C(=O)Nc1ccc(Nc2nc(C)cc(N3CCOCC3)n2)cc1`, the 50% inhibitory concentration (IC50) was 530 nM. With `c1ccc(-c2nc(NCCCn3ccnc3)cc(-c3ccncc3)n2)cc1` the figure was 170 nM; with `COc1cc(C(=O)NC2CC(C)(C)N(C)C(C)(C)C2)ccc1-c1nc2cc(Cl)c(Cl)cc2[nH]1`, 790 nM.

Compound `CC1(C)N=C(N)N=C(N)N1OCc1cc2ccccc2cc1CON1C(N)=NC(N)=NC1(C)C` yielded an IC50 of 130 nM. With `COc1ccccc1N1CCN(CCCCNC(=O)c2ccc(NC(=O)c3ccc(OC(F)(F)F)cc3)cc2)CC1` the figure was 660 nM; with `COc1ccc(NC(=O)CCNc2cc(C)nc(NCCc3ccccc3)n2)cc1`, 1160 nM; with `CCCNc1ccc2nccc(CCN3CCC(NCc4ccc5c(n4)NC(=O)CS5)CC3)c2n1`, 720 nM. Turning to `Cc1cc(C(=O)CN2C(=O)NC3(CCCc4ccccc43)C2=O)c(C)n1Cc1ccco1` (configuration not stated), the IC50 turned out to be 1100 nM. As for `O=C(Cc1ccccc1)NC(c1ccccc1)c1ccc2cccnc2c1O` (configuration not stated), the concentration for half-maximal inhibition (IC50) was 950 nM. With `CN1CCCc2ccc(NC(=O)Nc3ccc(Cl)c(Cl)c3)cc2C1` the figure was 600 nM.

In turn, `Cc1nc(N)nc(N)c1OCCCCCCOc1ccccc1` displayed an IC50 of 240 nM. With `CCN(C(=O)c1ccc(NC(=O)c2cccs2)cc1)c1nc2c(C)cccc2s1` the figure was 850 nM; with `Cc1ccc(CC(C)NCC(O)c2cccc(Cl)c2)cc1` (configuration not stated), 930 nM. On to `Cc1nc(N)nc(N)c1-c1cc(Cl)c(N)c(Cl)c1`, for which the IC50 came to 800 nM. With `O=C(NC1CCN(c2ccnc3cc(Cl)ccc23)C1)c1ccc(F)cc1F` (configuration not stated) the figure was 370 nM. With `Cc1nc(-c2nc(NCCc3c(C)noc3C)ncc2-c2ccsc2)sc1C` the figure was 260 nM.

`CCn1c(-c2nonc2N)nc2c(-c3cccc(NC(=O)Nc4cccc(Cl)c4)c3)ncc(OCCCN)c21`: the IC50 was found to be 940 nM. With `CCn1c(C=Cc2cc(Br)ccc2O)nc2ccccc2c1=O` the figure was 650 nM; with `FC(F)(F)c1cccnc1N1CCC(Nc2nc3ccc(Cl)cc3[nH]2)CC1`, 650 nM; with `Cc1cc2nc(/N=C(\N)NC(=O)NC3CCCCC3)nc(C)c2cc1C`, 750 nM. With `CCCCCCCCNCC(O)c1ccc(Cl)c(Cl)c1` (configuration not stated) the figure was 820 nM. On to `CCOc1ccc2c(NN=Cc3cccc(F)c3)cc(C)nc2c1`, for which the IC50 was determined as 710 nM.

In turn, `COc1ccc(CN(C)Cc2ccc(NC(=O)c3cccc4c(=O)c5cccc(C)c5[nH]c34)cc2)cc1OC` showed an IC50 of 840 nM. With `O=C(c1cc2c(s1)-c1cccc(Cl)c1SC2)N1CCN(c2ccncc2)CC1` the figure was 1010 nM; with `O=C1NC(c2ccc(N3CCCCCC3)cc2)Nc2ccccc21` (configuration not stated), 570 nM; with `COc1ccc(-c2cnc3ccc(NCc4ccc(S(N)(=O)=O)cc4)nn23)cc1`, 800 nM.

In turn, `O=C(Nc1ccccc1)N1CCC(CN2CCOC(c3ccccc3)(c3ccccc3)C2)CC1` came in with an IC50 of 210 nM. Against the preceding compound, the IC50 is about 3.8-fold lower. With `Cc1nnc(N2C(=N)SC(=Cc3ccc(-c4ccc(OC(F)(F)F)cc4)o3)C2=O)s1`, the IC50 worked out at 530 nM. This IC50 is about 2.5-fold higher than that of the compound before.
